Laboratory results as given in the NIST ThermoML archive (doi:10.1016/j.fluid.2017.09.008).
Numbers after ± are expanded uncertainties.

Assay: excess molar enthalpy (molar enthalpy of mixing); xn = mol fraction of the nth substance listed
Conditions: 298.15 K, 101 kPa, Liquid, DSC [Setaram C80]

COc1ccccc1O [2-methoxyphenol] + CCO
excess molar enthalpy (x1 = 0.0168): -0.00716 ± 0.00526 kcal/mol | excess molar enthalpy (x1 = 0.1988): -0.0907 ± 0.00406 kcal/mol | excess molar enthalpy (x1 = 0.3994): -0.131 ± 0.00263 kcal/mol | excess molar enthalpy (x1 = 0.608): -0.121 ± 0.00311 kcal/mol | excess molar enthalpy (x1 = 0.7783): -0.0568 ± 0.00454 kcal/mol

Cc1ccccc1O [2-methylphenol] + CCO
excess molar enthalpy (x1 = 0.1954): -0.266 ± 0.00932 kcal/mol | excess molar enthalpy (x1 = 0.4127): -0.387 ± 0.00837 kcal/mol | excess molar enthalpy (x1 = 0.6007): -0.395 ± 0.00884 kcal/mol | excess molar enthalpy (x1 = 0.8013): -0.226 ± 0.0112 kcal/mol

Cc1cccc(O)c1 [3-methylphenol] + CCO
excess molar enthalpy (x1 = 0.2003): -0.189 ± 0.00574 kcal/mol | excess molar enthalpy (x1 = 0.4097): -0.293 ± 0.00406 kcal/mol | excess molar enthalpy (x1 = 0.5861): -0.274 ± 0.00478 kcal/mol | excess molar enthalpy (x1 = 0.7875): -0.164 ± 0.00598 kcal/mol
